Values quoted from earlier work, collected in patent US20040176366A1, “Method of preventing or treating atherosclerosis or restenosis” (priority 2002, published 2004).

System: CMV
Conditions: rats, prophylaxis

In the case of Nc1nc(O)c2ncn(COC(CO)CO)c2n1 [Ganciclovir], the “prevention of atherosclerosis resulting from CMV infection” value is given as “prevent atherosclerosis resulting from CMV infection of rats”.
